This note sets out measurements from ChEMBL document CHEMBL5360651, “Progress on the Pharmacological Targeting of Janus Pseudokinases” (J Med Chem, 2023).

Data set [1] addresses T1, Tyrosine-protein kinase JAK1 (Homo sapiens, UniProt P23458).
Data set [2] has as its target T2, Tyrosine-protein kinase JAK3 (Homo sapiens, UniProt P52333).
T2 sequence (P52333 whole entry): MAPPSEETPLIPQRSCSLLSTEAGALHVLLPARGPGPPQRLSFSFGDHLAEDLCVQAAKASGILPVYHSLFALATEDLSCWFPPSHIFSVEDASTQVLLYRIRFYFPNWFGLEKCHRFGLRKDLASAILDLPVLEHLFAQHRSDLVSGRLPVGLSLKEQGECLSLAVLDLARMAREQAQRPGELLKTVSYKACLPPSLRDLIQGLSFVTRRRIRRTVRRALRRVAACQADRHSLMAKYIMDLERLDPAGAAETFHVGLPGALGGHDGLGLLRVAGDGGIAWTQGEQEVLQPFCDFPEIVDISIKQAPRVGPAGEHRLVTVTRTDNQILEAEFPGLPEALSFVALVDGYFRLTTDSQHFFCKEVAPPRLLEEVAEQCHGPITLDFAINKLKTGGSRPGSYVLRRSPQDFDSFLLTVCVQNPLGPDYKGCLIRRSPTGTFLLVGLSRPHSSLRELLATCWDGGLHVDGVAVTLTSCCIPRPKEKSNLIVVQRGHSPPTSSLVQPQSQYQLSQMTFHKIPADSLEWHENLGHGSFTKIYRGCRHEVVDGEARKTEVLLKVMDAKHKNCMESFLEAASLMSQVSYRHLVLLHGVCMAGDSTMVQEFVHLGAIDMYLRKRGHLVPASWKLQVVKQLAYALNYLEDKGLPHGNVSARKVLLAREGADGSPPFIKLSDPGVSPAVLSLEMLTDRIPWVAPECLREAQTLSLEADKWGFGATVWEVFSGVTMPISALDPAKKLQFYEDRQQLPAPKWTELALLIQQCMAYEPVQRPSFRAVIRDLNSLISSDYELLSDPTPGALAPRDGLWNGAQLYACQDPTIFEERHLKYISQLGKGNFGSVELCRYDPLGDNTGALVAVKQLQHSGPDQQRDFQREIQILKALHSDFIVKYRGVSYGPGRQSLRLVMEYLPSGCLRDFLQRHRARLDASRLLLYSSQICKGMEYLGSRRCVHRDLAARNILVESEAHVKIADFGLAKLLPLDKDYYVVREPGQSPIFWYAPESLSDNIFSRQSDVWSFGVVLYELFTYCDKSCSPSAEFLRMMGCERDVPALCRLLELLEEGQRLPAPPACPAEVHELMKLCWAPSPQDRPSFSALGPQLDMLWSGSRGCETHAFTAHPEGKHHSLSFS
The data set can be described thus: Inhibition of JAK3 signaling pathway in human PBMC cells assessed as reduction of IL-2 induced STAT5 phosphorylation. The class given is cell-based.

Data set [3] can be described thus: Solubility of compound at pH 6.5. It counts as physicochemical. The conditions noted are these: buffer.
Data set [4] is described as follows: Half life in human liver microsomes. It counts as ADME, Microsome. (In general: Microsomes from liver hold many membrane-bound enzymes, among them those of drug oxidation.)
Data set [5] addresses T3, Non-receptor tyrosine-protein kinase TYK2 (Homo sapiens, UniProt P29597). The data set is described as follows: Inhibition of TYK2 signalling pathway in human PBMC cells assessed as IFN alpha induced p-STAT1 level. The class given is cell-based.
Data set [6] has as its target T3, Non-receptor tyrosine-protein kinase TYK2. The data set is described as follows: Inhibition of TYK2 signalling pathway in human PBMC cells assessed as IFN alpha induced p-STAT3 level. The class given is cell-based.
Data set [7] has the same target. The data set is described as follows: Inhibition of human recombinant N-terminal His-tagged TYK2 (575 to 869 residues) expressed in baculovirus infected Sf9 cells at 1 uM incubated for 30 mins by scintillation method.
Data set [8] addresses T4, Inhibitor of nuclear factor kappa-B kinase subunit beta (Homo sapiens) (UniProt O14920).
T4 sequence (whole entry): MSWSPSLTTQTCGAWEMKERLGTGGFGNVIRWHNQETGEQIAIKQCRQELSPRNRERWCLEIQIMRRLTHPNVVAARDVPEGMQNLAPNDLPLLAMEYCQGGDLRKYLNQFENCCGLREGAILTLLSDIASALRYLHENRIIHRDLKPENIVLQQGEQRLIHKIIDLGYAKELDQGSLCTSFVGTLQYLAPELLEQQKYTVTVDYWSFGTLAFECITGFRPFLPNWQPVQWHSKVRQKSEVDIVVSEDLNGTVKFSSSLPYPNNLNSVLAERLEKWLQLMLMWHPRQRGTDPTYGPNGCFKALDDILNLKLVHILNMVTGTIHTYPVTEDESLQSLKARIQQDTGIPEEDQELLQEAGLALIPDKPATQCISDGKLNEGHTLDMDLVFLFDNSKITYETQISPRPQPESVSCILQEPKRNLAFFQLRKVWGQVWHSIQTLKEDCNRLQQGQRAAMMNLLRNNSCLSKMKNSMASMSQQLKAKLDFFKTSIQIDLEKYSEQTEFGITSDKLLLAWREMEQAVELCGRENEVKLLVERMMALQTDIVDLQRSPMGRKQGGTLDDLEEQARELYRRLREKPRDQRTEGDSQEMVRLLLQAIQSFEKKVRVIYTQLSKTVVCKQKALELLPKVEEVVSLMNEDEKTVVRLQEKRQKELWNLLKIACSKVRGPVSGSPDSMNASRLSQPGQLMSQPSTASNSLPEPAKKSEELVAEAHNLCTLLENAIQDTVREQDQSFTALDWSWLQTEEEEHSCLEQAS
The data set is described as follows: Inhibition of IKKbeta (unknown origin) at 1 uM relative to control.

The target in data set [9] is T3, Non-receptor tyrosine-protein kinase TYK2. The data set can be described thus: Inhibition of TYK2 JH2 in human KIT225 cells assessed as reduction of IFNalpha induced STAT1 phosphorylation by AlphaLISA assay. It counts as cell-based. (In general: Bead proximity is the source of the signal in Alpha formats.)
Data set [10] can be described thus: Inhibition of PDE4 (unknown origin) by HTRF assay. More on the design: species or system Homo sapiens. On the technique in general: In TR-FRET formats the signal depends on donor and acceptor labels being close together.
Data set [11] concerns the target T3, Non-receptor tyrosine-protein kinase TYK2. The class given is cell-based, Sf9.
The target of data set [12] is T5, Tyrosine-protein kinase JAK2 (Homo sapiens, UniProt O60674).
The target in data set [13] is T3, Non-receptor tyrosine-protein kinase TYK2. The class given is cell-based, Sf9. The source holds these as a separate data set.
For data set [14], the target named is Voltage-gated inwardly rectifying potassium channel KCNH2 (Homo sapiens, UniProt Q12809). The data set is described as follows: Inhibition of hERG by fluorescence polarization method. It counts as toxicity.
The target in data set [15] is T1, Tyrosine-protein kinase JAK1. The source holds these as a separate data set.
Data set [16] is described as follows: Inhibition of JAK1 JH2 (unknown origin). Also on record: species or system Homo sapiens.
Data set [17] addresses Tyrosine-protein kinase JAK2 (Homo sapiens, UniProt O60674, V617F). The data set is described as follows: Binding affinity to JAK2 V617F mutant (unknown origin) assessed as dissociation constant.
The target in data set [18] is T5, Tyrosine-protein kinase JAK2. The data set is described as follows: Binding affinity to wild type JAK2 JH2 (unknown origin).

The structures appear in SMILES notation.

T3 sequence (P29597 whole entry): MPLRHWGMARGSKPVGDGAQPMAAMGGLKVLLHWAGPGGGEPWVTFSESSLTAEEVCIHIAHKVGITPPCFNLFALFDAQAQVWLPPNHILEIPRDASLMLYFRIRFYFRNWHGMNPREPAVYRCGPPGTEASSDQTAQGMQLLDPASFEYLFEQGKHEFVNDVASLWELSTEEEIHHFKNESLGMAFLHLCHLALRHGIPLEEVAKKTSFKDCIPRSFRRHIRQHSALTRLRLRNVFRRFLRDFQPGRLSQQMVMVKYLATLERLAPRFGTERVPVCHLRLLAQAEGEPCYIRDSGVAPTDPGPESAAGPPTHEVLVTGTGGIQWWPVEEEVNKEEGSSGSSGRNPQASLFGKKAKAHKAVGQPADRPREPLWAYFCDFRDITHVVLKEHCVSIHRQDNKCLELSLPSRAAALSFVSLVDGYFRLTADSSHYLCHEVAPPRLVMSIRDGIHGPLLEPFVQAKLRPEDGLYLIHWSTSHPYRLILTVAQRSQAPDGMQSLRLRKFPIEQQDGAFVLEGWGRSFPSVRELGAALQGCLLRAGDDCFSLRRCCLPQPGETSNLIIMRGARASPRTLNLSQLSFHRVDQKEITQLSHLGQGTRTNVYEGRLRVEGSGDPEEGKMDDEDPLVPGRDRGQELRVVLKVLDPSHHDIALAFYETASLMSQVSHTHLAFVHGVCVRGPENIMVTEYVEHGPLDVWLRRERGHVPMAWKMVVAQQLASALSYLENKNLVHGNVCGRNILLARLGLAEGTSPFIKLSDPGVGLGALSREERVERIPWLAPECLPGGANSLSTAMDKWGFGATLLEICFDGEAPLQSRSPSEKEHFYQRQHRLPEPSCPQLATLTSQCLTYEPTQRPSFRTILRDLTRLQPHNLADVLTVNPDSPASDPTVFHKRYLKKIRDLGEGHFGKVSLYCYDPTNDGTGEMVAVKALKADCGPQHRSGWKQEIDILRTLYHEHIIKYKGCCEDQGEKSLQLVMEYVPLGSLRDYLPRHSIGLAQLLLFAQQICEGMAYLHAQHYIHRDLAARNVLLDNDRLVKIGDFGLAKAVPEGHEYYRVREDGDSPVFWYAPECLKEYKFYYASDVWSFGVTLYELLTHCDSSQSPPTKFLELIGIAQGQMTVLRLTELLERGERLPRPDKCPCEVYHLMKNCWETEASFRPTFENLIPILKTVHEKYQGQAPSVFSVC
T1 sequence (P23458 whole entry): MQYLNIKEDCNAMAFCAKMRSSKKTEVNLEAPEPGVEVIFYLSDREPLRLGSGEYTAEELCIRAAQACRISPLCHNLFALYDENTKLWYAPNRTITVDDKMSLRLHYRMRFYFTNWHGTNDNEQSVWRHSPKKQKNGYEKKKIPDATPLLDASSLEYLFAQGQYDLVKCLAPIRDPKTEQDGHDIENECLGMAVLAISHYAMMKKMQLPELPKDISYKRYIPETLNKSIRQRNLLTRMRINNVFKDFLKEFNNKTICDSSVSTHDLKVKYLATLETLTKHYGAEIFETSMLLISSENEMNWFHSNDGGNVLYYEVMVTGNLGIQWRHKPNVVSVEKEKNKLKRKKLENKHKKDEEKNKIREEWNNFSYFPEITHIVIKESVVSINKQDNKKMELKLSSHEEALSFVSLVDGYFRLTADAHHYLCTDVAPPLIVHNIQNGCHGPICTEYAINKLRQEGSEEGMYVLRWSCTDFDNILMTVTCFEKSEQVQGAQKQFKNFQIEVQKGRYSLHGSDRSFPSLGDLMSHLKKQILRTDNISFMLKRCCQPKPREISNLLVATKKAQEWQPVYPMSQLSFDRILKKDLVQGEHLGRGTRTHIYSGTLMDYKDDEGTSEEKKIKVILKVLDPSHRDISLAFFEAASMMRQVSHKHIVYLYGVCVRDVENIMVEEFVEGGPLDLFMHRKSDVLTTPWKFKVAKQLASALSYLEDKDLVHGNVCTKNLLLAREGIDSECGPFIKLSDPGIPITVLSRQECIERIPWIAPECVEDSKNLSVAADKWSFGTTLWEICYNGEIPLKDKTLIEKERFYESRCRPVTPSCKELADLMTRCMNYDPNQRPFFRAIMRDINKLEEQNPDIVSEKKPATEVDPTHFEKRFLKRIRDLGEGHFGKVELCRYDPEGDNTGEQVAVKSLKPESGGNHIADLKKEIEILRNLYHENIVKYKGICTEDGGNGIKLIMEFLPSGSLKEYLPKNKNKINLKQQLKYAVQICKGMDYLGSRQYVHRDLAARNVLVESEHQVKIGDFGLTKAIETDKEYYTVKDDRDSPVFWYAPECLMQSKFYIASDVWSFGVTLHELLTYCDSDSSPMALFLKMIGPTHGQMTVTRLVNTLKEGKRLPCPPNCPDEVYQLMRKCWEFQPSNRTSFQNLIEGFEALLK
T5 sequence (O60674 whole entry): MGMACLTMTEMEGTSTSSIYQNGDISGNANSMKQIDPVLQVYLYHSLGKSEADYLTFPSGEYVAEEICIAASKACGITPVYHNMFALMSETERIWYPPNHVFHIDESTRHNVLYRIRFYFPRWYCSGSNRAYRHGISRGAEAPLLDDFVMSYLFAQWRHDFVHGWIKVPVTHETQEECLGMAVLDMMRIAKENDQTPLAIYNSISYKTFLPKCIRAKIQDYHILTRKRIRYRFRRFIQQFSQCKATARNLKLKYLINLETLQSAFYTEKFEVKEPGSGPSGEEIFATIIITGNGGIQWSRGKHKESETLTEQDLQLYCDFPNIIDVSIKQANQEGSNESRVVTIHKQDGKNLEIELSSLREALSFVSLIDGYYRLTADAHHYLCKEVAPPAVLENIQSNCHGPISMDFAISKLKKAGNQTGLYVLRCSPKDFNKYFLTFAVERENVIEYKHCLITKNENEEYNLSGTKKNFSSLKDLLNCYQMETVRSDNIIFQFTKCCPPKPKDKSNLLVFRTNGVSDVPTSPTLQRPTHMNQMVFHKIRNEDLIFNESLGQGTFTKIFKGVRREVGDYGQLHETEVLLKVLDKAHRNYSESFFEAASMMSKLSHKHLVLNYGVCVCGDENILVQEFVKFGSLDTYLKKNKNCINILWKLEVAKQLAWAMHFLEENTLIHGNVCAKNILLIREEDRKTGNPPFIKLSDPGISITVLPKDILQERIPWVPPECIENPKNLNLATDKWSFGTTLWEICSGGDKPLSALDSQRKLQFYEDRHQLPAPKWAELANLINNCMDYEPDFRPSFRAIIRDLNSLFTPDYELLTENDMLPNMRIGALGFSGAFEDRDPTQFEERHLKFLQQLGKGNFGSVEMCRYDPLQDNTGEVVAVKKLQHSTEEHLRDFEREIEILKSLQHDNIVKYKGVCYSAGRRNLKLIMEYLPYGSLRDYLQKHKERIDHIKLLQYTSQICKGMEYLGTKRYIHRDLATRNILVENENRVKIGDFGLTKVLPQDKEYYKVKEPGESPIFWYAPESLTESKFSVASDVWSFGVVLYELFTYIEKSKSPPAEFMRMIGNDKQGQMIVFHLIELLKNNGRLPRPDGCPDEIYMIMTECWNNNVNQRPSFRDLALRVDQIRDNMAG
Sequence of Tyrosine-protein kinase JAK2 (Homo sapiens, UniProt O60674, V617F) (O60674 whole entry V617F): as the sequence (O60674 whole entry) above, with V617F counted along it
Sequence of Voltage-gated inwardly rectifying potassium channel KCNH2 (Q12809 whole entry): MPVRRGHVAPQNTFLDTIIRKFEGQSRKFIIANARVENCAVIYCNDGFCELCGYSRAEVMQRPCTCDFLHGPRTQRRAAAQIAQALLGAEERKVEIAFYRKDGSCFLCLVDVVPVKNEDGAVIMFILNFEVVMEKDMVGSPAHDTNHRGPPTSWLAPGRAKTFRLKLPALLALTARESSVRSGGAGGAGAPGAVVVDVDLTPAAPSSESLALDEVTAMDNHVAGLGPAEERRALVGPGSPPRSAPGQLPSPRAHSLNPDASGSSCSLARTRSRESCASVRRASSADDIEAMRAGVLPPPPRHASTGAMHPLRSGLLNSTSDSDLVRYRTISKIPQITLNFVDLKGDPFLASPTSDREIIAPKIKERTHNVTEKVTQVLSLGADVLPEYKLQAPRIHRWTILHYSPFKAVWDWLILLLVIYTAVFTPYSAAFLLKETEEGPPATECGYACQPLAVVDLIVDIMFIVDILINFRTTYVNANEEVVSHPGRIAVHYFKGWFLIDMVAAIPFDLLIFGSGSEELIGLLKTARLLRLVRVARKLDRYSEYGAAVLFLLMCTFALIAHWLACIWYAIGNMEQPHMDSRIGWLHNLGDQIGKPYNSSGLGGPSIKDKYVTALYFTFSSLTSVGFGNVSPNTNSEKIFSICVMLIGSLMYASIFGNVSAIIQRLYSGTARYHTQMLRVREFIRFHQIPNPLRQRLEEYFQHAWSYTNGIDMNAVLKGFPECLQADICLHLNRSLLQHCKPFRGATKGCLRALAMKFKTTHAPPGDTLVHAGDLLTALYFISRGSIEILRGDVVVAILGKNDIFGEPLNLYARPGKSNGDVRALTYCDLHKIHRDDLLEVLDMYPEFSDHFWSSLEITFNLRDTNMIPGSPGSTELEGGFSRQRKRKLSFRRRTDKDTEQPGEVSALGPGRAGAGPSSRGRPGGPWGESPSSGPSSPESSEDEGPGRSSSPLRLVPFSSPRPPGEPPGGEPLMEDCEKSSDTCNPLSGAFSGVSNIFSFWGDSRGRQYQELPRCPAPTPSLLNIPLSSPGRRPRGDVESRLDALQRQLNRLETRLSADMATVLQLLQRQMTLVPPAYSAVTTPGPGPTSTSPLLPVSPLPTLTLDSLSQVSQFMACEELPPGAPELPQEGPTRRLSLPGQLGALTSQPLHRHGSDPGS

For the compound `O=C(Nc1c[nH]nc1-c1nc2cc(CN3CCOCC3)ccc2[nH]1)NC1CC1` [AT-9283], in data set [1], inhibition was half-maximal at 60 nM (IC50).
Take `[2H]C([2H])([2H])NC(=O)c1nnc(NC(=O)C2CC2)cc1Nc1cccc(-c2ncn(C)n2)c1OC` [DEUCRAVACITINIB]: the half-inhibitory concentration (IC50) (usually the concentration that inhibits the measured activity by half) in data set [2] was 3 nM. Also, in [3], the solubility (as a rule, the dissolved amount per volume that the medium holds) was less than 1 µg/mL. The half-life (commonly the time in which the quantity being followed falls by half) in data set [4] is more than 2 h.
As to `CS(=O)(=O)N1CC[C@H](C#CC(=O)N2CCC[C@@H](c3ccc(Cl)c(Cl)c3)C2)C1`, the results for the IC50 in data set [5] and in [6] were 32 nM and 46 nM, respectively.
With `CNc1nc2sc(-c3cccc([C@@H](C)NC(=O)c4ccccc4S(C)(=O)=O)c3)nc2c2c1ncn2C`, the inhibition (in general, the relative decrease from the control value, in per cent) was 99% in data set [7] and more than 96% in data set [8].
On to `NC(=O)c1ccccc1Nc1cc(Nc2ccc(F)cn2)ncc1C(N)=O`, for which the results for the half-maximal inhibitory concentration (IC50) in data set [9] and in data set [10] were 37 nM and more than 2000 nM, respectively.
In the case of `CNC(=O)c1cnc(Nc2ccc(C#N)cn2)cc1Nc1cccc(-c2ncn(C)n2)c1OC`, 0.3 nM corresponded to half-maximal inhibition in [11] (IC50).
Consider `O=c1cc(-c2ccccc2)nc2c(-c3cccc([N+](=O)[O-])c3)c(C(F)(F)F)[nH]n12`, for which the half-maximal inhibitory concentration (IC50) was 14000 nM in data set [12], 9700 nM in [11] and 50000 nM in data set [13].
Take `CNC(=O)c1cnc(Nc2ccc(F)cn2)cc1Nc1ccccc1S(C)(=O)=O`: in [9], the concentration for half-maximal inhibition (IC50) is 63 nM.
`CNC(=O)c1nnc(NC(=O)C2CC2)c2[nH]c(-c3ccc(N)cc3OC)cc12`: the half-life in data set [4] was more than 2.32 h. In addition, the half-maximal inhibitory concentration (IC50) in data set [14] is more than 30000 nM.
On to `c1nc2nc(Nc3ccc(N4CCOCC4)cc3)nc(NC3CCCCC3)c2[nH]1` [REVERSINE], for which the IC50 in data set [1] and in data set [15] was 350 nM throughout.
`CC(C)CCN1c2nc(Nc3cc(F)c(O)c(F)c3)ncc2N(C)C(=O)C1C` (stereo not drawn) showed an IC50 in [16] of 658 nM.
For `CC(C)CCN1c2nc(Nc3cc(F)c(O)c(F)c3)ncc2N(C)C(=O)C1(C)C`, the half-maximal inhibitory concentration (IC50) in [16] amounted to 123 nM.
Consider `Nc1nc(CSc2nnc(NCC3CCCC3)s2)nc(Nc2ccc(F)cc2)n1`, for which the Kd (usually the free concentration of one partner at which half of the binding sites on the other are occupied at equilibrium, for simple one-to-one binding) in data set [17] was 65000 nM; in data set [18], 149000 nM.
